Test [1] has as its target T1, human calcitonin receptor (CTR) (Homo sapiens, UniProt P30988).
T1 construct: expressed in transfected cells; host or cells: COS-7 (COS7-human CTR Clone #2)
T1 sequence (P30988 25-474): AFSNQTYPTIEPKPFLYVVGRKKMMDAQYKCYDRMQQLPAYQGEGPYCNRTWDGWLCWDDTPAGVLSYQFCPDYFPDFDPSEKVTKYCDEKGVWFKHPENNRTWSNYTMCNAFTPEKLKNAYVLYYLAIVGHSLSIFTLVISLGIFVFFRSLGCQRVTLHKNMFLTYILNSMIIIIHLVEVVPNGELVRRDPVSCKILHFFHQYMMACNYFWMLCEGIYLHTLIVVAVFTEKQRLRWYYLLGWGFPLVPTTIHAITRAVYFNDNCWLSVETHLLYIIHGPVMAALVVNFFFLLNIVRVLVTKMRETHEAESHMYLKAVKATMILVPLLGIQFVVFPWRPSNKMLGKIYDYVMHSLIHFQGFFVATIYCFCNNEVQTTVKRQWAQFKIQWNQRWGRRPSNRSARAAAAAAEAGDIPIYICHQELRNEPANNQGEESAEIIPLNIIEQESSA
As to the kind of experiment: Calcitonin Receptor (CTR) cAMP Assay. In kind it is cell-based. The conditions noted are these: COS7-human CTR Clone #2 stable cell line, cAMP dynamic 2 kit, 30 min; read-out: Calcitonin Receptor cAMP Stimulation Activity: EC50. How it is done: (§1) After incubation, the cAMP assay signal was generated using cAMP dynamic 2 kit (Revvity, Cat #62AM4PEC). 10 μL cAMP-d2 working solution was added to each well, followed by 10 μL Anti-cAMP antibody-cryptate working solution which was added to each well using CERTUS FLEX LIQUID […]. The samples were then incubated at room temperature for 1 hour protected from light. the fluorescence was read at 665 and 615 nm with Reader PerkinElmer EnVision 2105. % Activity=100−(mean RLU of test sample−mean RLU of positive control)/(mean RLU of vehicle control−mean RLU of positive control)×100 Calcitonin Receptor (CTR) cAMP Assay
The calcitonin receptor (CTR) belongs to the subfamily of GPCRs known as the secretin or ‘B’ family of GPCRs. Like other class B1 GPCRs, the CT receptor family is canonically coupled to Gs-mediated cAMP production, and measurement of cAMP accumulation has been the primary assay used to determine peptide selectivity and potency.
(§2) To optimize functional activity directed toward Gαs coupling, COS-7 cells were stably transfected with human calcitonin receptor (CTR) to create COS7-human CTR Clone #2 stable cell line. 100×concentration of compound working solutions were prepared with 4-fold serial dilution in 384-well Echo LDV plate (Labcyte, Cat #LP-0200-BC). 200 nL/well 100×concentration of compound working solutions were moved to 384-well white microplate (Perkin Elmer, Cat #6007680) using Labcyte ECHO550. 1×10^5 cells/mL COS7-human CTR Clone #2 cell suspensions prepared with assay buffer [HBSS containing 20 mM HEPES (Gibco, Cat #15630-080), 0.5 mM IBMX (Sigma, Cat #15879) and 0.1% Casein (Sigma, Cat #C4765)], 20 μL cell suspensions were added to each well of previous generated assay plate which already contains 200 nL compound at 100×concentration using ThermoFisher Multidrop Combi (2000 cells/well). Seal the plate and incubate at 37° C. with 5% CO2 for 30 min.
After incubation, the cAMP assay signal was generated using cAMP dynamic 2 kit (Revvity, Cat #62AM4PEC). 10 μL cAMP-d2 working solution was added to each well, followed by 10 μL Anti-cAMP antibody-cryptate working solution which was added to each well using CERTUS FLEX LIQUID […]. The samples were then incubated at room temperature for 1 hour protected from light. the fluorescence was read at 665 and 615 nm with Reader PerkinElmer EnVision 2105. % Activity=100−(mean RLU of test sample−mean RLU of positive control)/(mean RLU of vehicle control−mean RLU of positive control)×100

Test [2] concerns the target T2, COS-7/AMY3 (human calcitonin receptor (CTR) and RAMP3) (Homo sapiens, UniProt O60896+P30988).
T2 construct: expressed in transfected cells; host or cells: COS-7
As to the kind of experiment: Amylin Receptor cAMP Assay II. In kind it is cell-based. To be noted: values marked **: Amylin Receptor cAMP Assay II; COS-7/AMY3 cells, cAMP dynamic 2 kit, 30 min; read-out: Amylin Receptor cAMP Stimulation Activity: EC50.
Excerpt: AMYRs are heterodimers of the class B calcitonin (CT) G-protein-coupled receptor (CTR) and receptor activity-modifying proteins (RAMPs). All three RAMPs can interact with the CTR and form AMY1, AMY2, AMY3 with RAMP1, RAMP2 and RAMP3, respectively. Like other class B1 GPCRs, the CT receptor family is canonically coupled to Gs-mediated cAMP production, and measurement of cAMP accumulation has been the primary assay used to determine peptide selectivity and potency.
as §2, with “and RAMP3, simultaneously.” for “to create COS7-human CTR Clone #2 stable cell line.”, “COS-7/AMY3” for “COS7-human CTR Clone #2”
as §1

By EC50 is commonly meant the concentration needed to bring the measured effect to its halfway point.

T2 sequence (O60896 24-148, one chain of several): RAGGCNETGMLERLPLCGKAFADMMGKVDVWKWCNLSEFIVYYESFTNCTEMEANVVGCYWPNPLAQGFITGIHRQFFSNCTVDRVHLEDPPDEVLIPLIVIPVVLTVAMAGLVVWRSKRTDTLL

Consider `COc1c(F)ccc2c1CC[C@H]2Nc1nccc2sc(-c3c4c(nc(CCc5ccc(F)cc5)c3-c3n[nH]c(=O)o3)C35CC(CN3C4=O)C5)cc12` [Compound 269, (R)-5-(4-(4-((5-fluoro-4-methoxy-2,3-dihydro-1H-inden-1-yl)amino)thieno[3,2-c]pyridin-2-yl)-2-(4-fluorophenethyl)-5-oxo-8,9-dihydro-5H,7H-8,9a-methanopyrido[2,3-a]pyrrolizin-3-yl)-1,3,4-oxadiazol-2(3H)-one], for which the EC50 in test [1] stood at 0.0975 nM; in test [2], 1.78 nM.

Regarding `O=C1c2c(nc(CCc3ccc(F)cc3)c(-c3n[nH]c(=O)o3)c2-c2ccc3c(Cc4ccc(F)cc4F)nccc3c2)[C@@H]2CCCN12` [Compound 219, (S)-5-(4-(1-(2,4-difluorobenzyl)isoquinolin-6-yl)-2-(4-fluorophenethyl)-5-oxo-7,8,9,9a-tetrahydro-5H-pyrido[2,3-a]pyrrolizin-3-yl)-1,3,4-oxadiazol-2(3H)-one], the EC50 was 27.4 nM in test [1] and 437 nM in test [2].

For the compound `COc1c(F)ccc2c1CC(F)(F)[C@H]2Nc1nccc2cc(-c3c4c(nc(CCc5ccc(F)cc5)c3-c3n[nH]c(=O)o3)C35CC(CN3C4=O)C5)sc12` [Compound 283, (S)-5-(2-(4-fluorophenethyl)-5-oxo-4-(7-((2,2,5-trifluoro-4-methoxy-2,3-dihydro-1H-inden-1-yl)amino)thieno[2,3-c]pyridin-2-yl)-5,7,8,9-tetrahydro-8,9a-methanopyrido[2,3-a]pyrrolizin-3-yl)-1,3,4-oxadiazol-2(3H)-one], the EC50 in test [1] was 0.0191 nM; in test [2], 1.57 nM.

As to `COc1c(F)ccc2c1CC[C@H]2Nc1nc(C)cc2cc(-c3c4c(nc(CCc5ccc(F)cc5)c3-c3n[nH]c(=O)o3)C(C3CC3)NC4=O)sc12` (stereo partly drawn) [Compound 302, 5-(7-cyclopropyl-4-(7-(((R)-5-fluoro-4-methoxy-2,3-dihydro-1H-inden-1-yl)amino)-5-methylthieno[2,3-c]pyridin-2-yl)-2-(4-fluorophenethyl)-5-oxo-6,7-dihydro-5H-pyrrolo[3,4-b]pyridin-3-yl)-1,3,4-oxadiazol-2(3H)-one], the EC50 turned out to be 0.134 nM in test [1] and 3.97 nM in test [2].

With `O=C1c2c(nc(CCc3ccc(F)cc3)c(-c3n[nH]c(=O)o3)c2-c2cc3ccnc(N[C@@H]4CCc5c4ccc(F)c5Cl)c3s2)[C@@H]2CCCN12` [Compound 168, 5-((S)-4-(7-(((R)-4-chloro-5-fluoro-2,3-dihydro-1H-inden-1-yl)amino)thieno[2,3-c]pyridin-2-yl)-2-(4-fluorophenethyl)-5-oxo-7,8,9,9a-tetrahydro-5H-pyrido[2,3-a]pyrrolizin-3-yl)-1,3,4-oxadiazol-2(3H)-one], the EC50 in test [1] is 0.341 nM; in test [2], 15.3 nM.

As for `O=C1c2c(nc(CCc3ccc(F)cc3)c(-c3n[nH]c(=O)o3)c2-c2cnc3c(ccn3Cc3ncc(F)cc3F)c2)[C@@H]2CCCN12` [Compound 210, (S)-5-(4-(1-((3,5-difluoropyridin-2-yl)methyl)-1H-pyrrolo[2,3-b]pyridin-5-yl)-2-(4-fluorophenethyl)-5-oxo-7,8,9,9a-tetrahydro-5H-pyrido[2,3-a]pyrrolizin-3-yl)-1,3,4-oxadiazol-2(3H)-one], the figures for the EC50 in test [1] and in test [2] were 23 nM and 467 nM, respectively.

In the case of `COc1c(F)c(F)cc2c1CC[C@H]2Nc1nccc2cc(-c3c4c(nc(CCc5ccc(F)cc5)c3-c3n[nH]c(=O)o3)C35CC(CN3C4=O)C5)sc12` [Compound 286, (R)-5-(4-(7-((5,6-difluoro-4-methoxy-2,3-dihydro-1H-inden-1-yl)amino)thieno[2,3-c]pyridin-2-yl)-2-(4-fluorophenethyl)-5-oxo-8,9-dihydro-5H,7H-8,9a-methanopyrido[2,3-a]pyrrolizin-3-yl)-1,3,4-oxadiazol-2(3H)-one], the results for the half-maximal effective concentration (EC50) in test [1] and in test [2] were 0.00668 nM and 0.175 nM, respectively.

With `CC(C)C1CS(=O)(=O)c2c1nc(CCC1CCOCC1)c(-c1n[nH]c(=O)o1)c2-c1cnc2c(ccn2Cc2ccc(C#N)c(F)c2)c1` (stereo not shown) [Compound 157, 2-fluoro-4-((5-(3-isopropyl-1,1-dioxido-6-(5-oxo-4,5-dihydro-1,3,4-oxadiazol-2-yl)-5-(2-(tetrahydro-2H-pyran-4-yl)ethyl)-2,3-dihydrothieno[3,2-b]pyridin-7-yl)-1H-pyrrolo[2,3-b]pyridin-1-yl)methyl)benzonitrile], the EC50 is 7.42 nM in test [1] and 115 nM in test [2].

As for `COc1c(F)ccc2c1C[C@@H](F)[C@H]2Nc1nc(C)cc2cc(-c3c4c(nc(CCc5ccc(F)cc5)c3-c3n[nH]c(=O)o3)[C@@H]3CCCN3C4=O)sc12` [Compound 301, 5-((S)-4-(7-(((1S,2R)-2,5-difluoro-4-methoxy-2,3-dihydro-1H-inden-1-yl)amino)-5-methylthieno[2,3-c]pyridin-2-yl)-2-(4-fluorophenethyl)-5-oxo-7,8,9,9a-tetrahydro-5H-pyrido[2,3-a]pyrrolizin-3-yl)-1,3,4-oxadiazol-2(3H)-one], the EC50 was 0.0551 nM in test [1] and 0.857 nM in test [2].

For the compound `COc1cccc2c1CC[C@H]2Nc1nccc2cc(-c3c(-c4n[nH]c(=O)o4)c(CCc4ccc(F)cc4)nc4c3S(=O)(=O)C[C@@H]4C(C)C)sc12` [Compound 236, 5-((R)-5-(4-fluorophenethyl)-3-isopropyl-7-(7-(((R)-4-methoxy-2,3-dihydro-1H-inden-1-yl)amino)thieno[2,3-c]pyridin-2-yl)-1,1-dioxido-2,3-dihydrothieno[3,2-b]pyridin-6-yl)-1,3,4-oxadiazol-2(3H)-one], the concentration for a half-maximal effect (EC50) turned out to be 177 nM in test [1] and 128 nM in test [2].

For the compound `COc1c(F)ccc2c1CC[C@H]2Nc1nc(C)cc2cc(-c3c4c(nc(CCc5cccc(F)c5)c3-c3n[nH]c(=O)o3)C35CC(CN3C4=O)C5)sc12` [Compound 300, (R)-5-(4-(7-((5-fluoro-4-methoxy-2,3-dihydro-1H-inden-1-yl)amino)-5-methylthieno[2,3-c]pyridin-2-yl)-2-(3-fluorophenethyl)-5-oxo-8,9-dihydro-5H,7H-8,9a-methanopyrido[2,3-a]pyrrolizin-3-yl)-1,3,4-oxadiazol-2(3H)-one], the figures for the EC50 in test [1] and in test [2] were 0.016 nM and 0.362 nM, respectively.

The values above are taken from patent US12486269B2 (Aconcagua Bio, Inc., priority 2024, dated 2025).
